The subject of one assay is awake Wistar rats. In words: Vasodilating action of acetylcholine (blood pressure) in awake rats. To be noted: endovenous infusion 7.0 pmol/min, n=9, FIG. 14B. Type of assay: in vivo, rat. The method, then: Wistar rats were subjected, 24 hours before the experiments, to surgical implantation of catheters into the femoral artery (for analysis of blood pressure and heart rate), femoral vein (for injection and infusion of drugs) and left carotid artery (for injection of drugs). The records of blood pressure and heart rate were obtained through a data acquisition system connected to a microcomputer (BIOPAC System, INc.). […] In none of the groups did we observe any alterations in the baroreflex.

Assay [1] deals with human endothelial cells of the thoracic aorta (HAEC). Kind of assay: Western blot, phosphorylation of kinase B (Akt) in HAEC. The class given is cell-based. Conditions: FIG. 12. The method, then:
(§1) CHO cells transfected with the Mas receptor (CHO-Mas) and human endothelial cells of the thoracic aorta (HAEC) were cultured until confluence of approximately 80% and processed with a lise buffer for Western blotting. After the processing, the protein concentration was determined and the lisates were subjected to electrophoresis in polyacrylamide/SDS gel and then subjected to transfer to the nitrocellulose membrane. The membranes were incubated with specific antibodies (anti-phospho-Akt, anti-Akt, anti-phospho-eNOS and anti-β-actin). The bands were viewed after development by chemoluminescence.
A general note: In western blotting, separated proteins are transferred to a membrane and probed.

The subject of assay [2] is CHO cells transfected with the Mas receptor (CHO-Mas). In words: Western blot, phosphorylation of kinase B (Akt) in CHO-Mas cells. Type of assay: cell-based. Conditions: FIG. 10. The method, then:
as §1

Assay [3] deals with human aorta endothelial cells (HAEC). In words: Western blot, phosphorylation of c-SRC stimulated by Ang II in HAEC. Type of assay: cell-based. To be noted: FIG. 15, 4 experiments, b15 words it as inhibiting c-SRC. The method, then: (§2) In order to quantify the activity of the NAD(P)H Oxtidase, human aorta endothelial cells (HAEC) were stimulated with angiotensin II (10^−7M) for 10 minutes. In some experiments, the cells were pre-exposed to the AT1 receptor antagonist Ibesartan (10^−5M), for 30 minutes or to Ang-(1-7) (10^−7 M) for 15 minutes. The chemoluminescence derived from lucigenin was used to determine the activity of NAD(P)H oxidase in the homogenate of the cells. In order to quantify the modulation of Ang-(1-7) in the phosphorylation of c-SRC, the HAECs were cultured until confluence of about 80% was reached and processed with lise buffer for Western blotting. After the processing, the protein concentration was determined and the lisates were subjected to gel electroforesis of polyacrylamide/SDS and then to the transfer to nitrocellulose membrane. The membranes were incubated with specific antibodies (anti-phospho-c-SRC, anti-c-SRC). The bands were visualized after development by chemoluminescency. […] In some experiments the cells were pre-incubated with Ibesartan (10^−5 M, 30 min). Data are presented with an average±EPM of 4 experiments. *p<0.05 vs control.+p<0.05 vs Ang II+Ang (1-7).

Assay [4] has as its system CHO cells transfected with the Mas receptor (CHO-Mas). Kind of assay: Western blot, phosphorylation of eNOS stimulatory site (S1177) in CHO-Mas cells. The class given is cell-based. To be noted: FIG. 11. The method, then:
as §1

The subject of assay [5] is human endothelial cells of the thoracic aorta (HAEC). In words: Western blot, phosphorylation of eNOS stimulatory site (S1177) in HAEC. The class given is cell-based. To be noted: FIG. 13. How it is done: as §1
A further assay concerns NAD(P)H oxidase. Kind of assay: NAD(P)H oxidase activity in HAEC homogenate, lucigenin chemoluminescence. Conditions: HAEC stimulated by Ang II 10^-7 M 10 min; Ang-(1-7) 10^-7 M 15 min pre-incubation; FIG. 16; direction stated only. The class given is cell-based, human. How it is done: as §2
Another assay relates to C57 mice. In words: Testis histology (apoptosis) and gonadosomatic index after 14-day osmotic mini-pump infusion. To be noted: 2.5 μg/h s.c. mini-pump, 14 days, n=5, FIG. 17. Type of assay: in vivo, mouse. The method, then:
Osmotic mini-pumps (ALZET, model 2002) containing the Mas G-protein-coupled receptor antagonist, A-779 (2.5 μg/h, 14 days, n=5) or carrier (NaCl 0.9%, 1 μl/h, 14 days, n=6) were implanted subscutaneously into the dorsal region of C57 mice under anesthesia with tribromoethanol (2.5%, 1 ml/100 g of body weight). After this period, the animals were weigh and then injected, by intraperitoneal route, with heparin at the concentration of 125 Ul/kg of body weight. After fifteen minutes, these animals were sedated with sodium thiopental (50 mg/kg of body weight) and perfused through the left ventricle. In a first step, it was carried out the washing of the vascular bed with a 0.9% saline solution, under a pressure of approximately 80 mmHg, for about 5 minutes, at room temperature. Immediately after this procedure, the animals were perfused with a 4% glutaraldehyde fixing solution in a phosphate buffer (0.05M, pH 7.2-7-4) for about 25 minutes. After this step, the testicles were removed and separated from the respective epididymis and weighed. From the testicular and body weights, one estimated the gonadosomatic index (percentage relation between the testicular weight and the body weight) for each animal. For the microscopic analyses, fragments of the testis up to about 3 mm thick were collected, which were dipped into glutaraldehyde buffered at 4% for two to four hours, at 4° C. […]

In the case of Angiotensin-(1-7) [Ang-(1-7)], in the assay with awake Wistar rats, the “effect on the vasodilating action of acetylcholine (ACh)” value is reported as “potentiates the vasodilating action of acetylcholine”. In addition, the “phosphorylation of kinase B (Akt)” value in assay [1] was “stimulatory effect”; in assay [2], “stimulation”. Further, the “effect on phosphorylation of c-SRC stimulated by Ang II” value in assay [3] is recorded as “modulating effect”. Also, the “phosphorylation of the stimulatory site of endothelial nitric oxide synthase (S1177)” value in assay [4] is “stimulated”. Also, the “phosphorylation of the stimulatory site of eNOS (S1177)” value in assay [5] was “stimulated”. In addition, in the assay with NAD(P)H oxidase, the “activity of NAD(P)H oxidase” value is recorded as “inhibits the activity of NAD(P)H oxidase”.
Take “Asp^1-Arg^2-Val^3-Tir^4-Lle^5-His^6-D-Ala^7 [A-779, reference compound]”: in the assay on C57 mice, the “gonadosomatic index (testicular weight / body weight, percentage) versus control group” value is “there was not different” and the “number of apoptosis per transverse section of testis versus control group” value is on record as “larger number of apoptosis per transverse section”. For the same substance, in assay [1], the “effect on Ang-(1-7)-stimulated phosphorylation of kinase B (Akt)” value was “blocked this effect”. Besides, in assay [2], the “effect on Ang-(1-7)-stimulated phosphorylation of kinase B (Akt)” value is “blocked this effect”.

(Values after patent US20080312129A1, “Use of Mas G-Protein-Coupled Receptor Agonists and Antagonists, as Apoptotic-Activity Modulators for Study, Prevention and Treatment of Diseases” (priority 2005, published 2008).)
